≈ marks a conversion by molar mass, not a printed value. Where two headings read alike, the source gives them in different places.
Tests used:
B. subtilis RB1 = assay: Antibacterial assay, standard microtitration, MIC; type: cell-based; conditions: Gram positive; for MIC: Bacillus subtilis, read-out: Minimum Inhibitory Concentrations, B. subtilis RB1
Procedure: (§1) The compounds of the present invention were tested against an assortment of gram negative and gram positive organisms using standard microtitration techniques (Cohen, et al., Antimicrob. Agents Chemother., 1985;28:766; Heifetz, et al. Antimicrob. Agents Chemother., 1974;6:124).

E. coli B90 = assay: Antibacterial assay, standard microtitration, MIC; type: cell-based; conditions: Gram negative; for MIC: Escherichia coli, read-out: Minimum Inhibitory Concentrations, E. coli B90
Procedure: as §1

E. coli MC4100 = assay: Antibacterial assay, standard microtitration, MIC; type: cell-based; conditions: Gram negative; for MIC: Escherichia coli, read-out: Minimum Inhibitory Concentrations, E. coli MC4100
Procedure: as §1

E. coli To1C = assay: Antibacterial assay, standard microtitration, MIC; type: cell-based; conditions: for Minimum Inhibitory Concentrations, E. coli To1C: Gram negative; for MIC: Escherichia coli, TO1C, read-out: Minimum Inhibitory Concentrations, E. coli To1C
Procedure: as §1

S. aureus 29213 = assay: Antibacterial assay, standard microtitration, MIC; type: cell-based; conditions: Gram positive; for MIC: Staphylococcus aureus, read-out: Minimum Inhibitory Concentrations, S. aureus 29213
Procedure: as §1

S. pyogenes C203 = assay: Antibacterial assay, standard microtitration, MIC; type: cell-based; conditions: Gram positive; for MIC: Streptococcus pyogenes, read-out: Minimum Inhibitory Concentrations, S. pyogenes C203
Procedure: as §1

E. coli gyrase = molecular target: T1, E. coli gyrase (Escherichia coli, UniProt P0AES4+P0AES6); assay: DNA gyrase supercoiling inhibition assay; type: biochemical
T1 construct: purchased Lucent, Ltd., Leicester, UK
T1 sequence (P0AES4 whole entry, one chain of several): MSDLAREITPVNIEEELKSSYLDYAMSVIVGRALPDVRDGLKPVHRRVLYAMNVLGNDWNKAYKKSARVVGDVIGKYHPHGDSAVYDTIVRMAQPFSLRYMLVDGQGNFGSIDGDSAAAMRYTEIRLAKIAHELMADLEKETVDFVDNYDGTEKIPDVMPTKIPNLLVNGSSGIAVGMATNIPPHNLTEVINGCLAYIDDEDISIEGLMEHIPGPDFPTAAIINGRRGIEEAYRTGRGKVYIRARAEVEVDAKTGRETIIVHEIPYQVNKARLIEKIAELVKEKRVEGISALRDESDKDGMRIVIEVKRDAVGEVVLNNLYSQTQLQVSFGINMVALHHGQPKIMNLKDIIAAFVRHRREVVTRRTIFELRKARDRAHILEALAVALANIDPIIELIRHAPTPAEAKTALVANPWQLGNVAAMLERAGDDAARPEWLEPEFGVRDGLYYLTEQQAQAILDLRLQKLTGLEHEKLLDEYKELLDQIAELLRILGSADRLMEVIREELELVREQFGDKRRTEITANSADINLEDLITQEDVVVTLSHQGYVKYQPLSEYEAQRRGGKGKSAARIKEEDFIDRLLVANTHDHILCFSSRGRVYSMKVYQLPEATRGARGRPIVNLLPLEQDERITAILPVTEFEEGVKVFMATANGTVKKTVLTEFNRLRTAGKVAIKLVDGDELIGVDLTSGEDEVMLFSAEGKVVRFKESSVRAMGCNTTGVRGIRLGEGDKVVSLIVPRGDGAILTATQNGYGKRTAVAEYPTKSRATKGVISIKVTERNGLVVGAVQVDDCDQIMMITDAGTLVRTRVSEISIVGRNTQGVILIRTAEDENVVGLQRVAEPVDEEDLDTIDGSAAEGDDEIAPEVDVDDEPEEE
Procedure: The effects of test agents on the activity of DNA gyrase was determined by the supercoiling inhibition assay, following reaction conditions recommended by the enzyme supplier (Lucent, Ltd., Leicester, UK), as follows. Reactions were performed in buffer G (35 mM Tris-HCL (pH 7.5), 24 mM KCl, 4 mM MgCl2, 2 mM DTT, 1.8 mM spermidine, 1 mM ATP, 0.1 mg/mL bovine serum albumin). 0.25 μg of relaxed plasmid pBR322 (Lucent, Ltd., Leicester, UK) was reacted with 1 U E. coli gyrase (Lucent, Ltd., Leicester, UK), in the absence or presence of drugs, for 30 minutes at 37° C. Reactions were stopped by the addition of SDS and proteinase K to respective final concentrations of 1% and 0.5 mg/mL. After an additional 30 minutes at 37° C., one-tenth volume of 10×loading buffer (0.3% bromophenol blue, 16% Ficoll, 10 mM Na2HPO4) was added, and reactions were loaded onto agarose gels and electrophoresed as described above for intercalation assays. The concentration of drug inhibiting 50% of the supercoiling activity of DNA gyrase is given as an IC50 and recorded in Table 2.

E. coli topoisomerase IV = molecular target: T2, E. coli topoisomerase IV (Escherichia coli, UniProt P0AFI2+P20083); assay: Topoisomerase IV k-DNA decatenation assay; type: biochemical
T2 construct: made in house; host or cells: E. coli overexpressing strains
T2 sequence (P0AFI2 whole entry): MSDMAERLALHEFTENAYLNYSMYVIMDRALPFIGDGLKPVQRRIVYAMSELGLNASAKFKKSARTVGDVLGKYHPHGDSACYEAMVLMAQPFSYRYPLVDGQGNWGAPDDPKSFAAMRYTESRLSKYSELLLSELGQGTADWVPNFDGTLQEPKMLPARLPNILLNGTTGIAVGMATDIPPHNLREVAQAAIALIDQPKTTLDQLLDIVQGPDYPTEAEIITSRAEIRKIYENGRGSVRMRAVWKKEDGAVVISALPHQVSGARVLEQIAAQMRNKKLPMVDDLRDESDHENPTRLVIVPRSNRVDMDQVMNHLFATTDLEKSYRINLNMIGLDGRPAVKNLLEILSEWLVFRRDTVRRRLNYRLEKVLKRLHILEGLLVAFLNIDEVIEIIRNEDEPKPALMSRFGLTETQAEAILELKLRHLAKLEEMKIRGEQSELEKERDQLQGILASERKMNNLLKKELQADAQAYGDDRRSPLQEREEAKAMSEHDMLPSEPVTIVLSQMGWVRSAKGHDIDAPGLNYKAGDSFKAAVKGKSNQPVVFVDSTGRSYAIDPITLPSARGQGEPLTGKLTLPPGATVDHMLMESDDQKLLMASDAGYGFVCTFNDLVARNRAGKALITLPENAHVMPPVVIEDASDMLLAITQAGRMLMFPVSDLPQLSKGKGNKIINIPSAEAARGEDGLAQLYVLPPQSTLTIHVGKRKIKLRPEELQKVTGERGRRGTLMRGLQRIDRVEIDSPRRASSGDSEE
T2 sequence (P20083 whole entry): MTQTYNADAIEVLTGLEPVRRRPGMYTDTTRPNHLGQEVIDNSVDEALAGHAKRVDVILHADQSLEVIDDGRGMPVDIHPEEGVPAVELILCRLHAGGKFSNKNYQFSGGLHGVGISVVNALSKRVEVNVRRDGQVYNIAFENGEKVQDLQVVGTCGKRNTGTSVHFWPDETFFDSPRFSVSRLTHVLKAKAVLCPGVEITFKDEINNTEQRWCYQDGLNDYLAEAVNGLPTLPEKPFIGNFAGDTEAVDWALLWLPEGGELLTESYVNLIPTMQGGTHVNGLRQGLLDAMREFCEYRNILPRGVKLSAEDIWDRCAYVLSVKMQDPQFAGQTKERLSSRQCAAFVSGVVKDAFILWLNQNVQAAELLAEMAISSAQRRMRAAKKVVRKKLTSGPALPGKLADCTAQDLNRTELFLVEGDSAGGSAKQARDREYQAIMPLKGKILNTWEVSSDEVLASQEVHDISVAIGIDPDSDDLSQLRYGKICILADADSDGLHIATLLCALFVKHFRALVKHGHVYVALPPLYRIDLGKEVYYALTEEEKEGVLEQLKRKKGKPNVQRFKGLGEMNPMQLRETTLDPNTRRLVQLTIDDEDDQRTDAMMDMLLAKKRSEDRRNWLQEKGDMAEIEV
Procedure: Topoisomerase IV was purified from E. coli overexpressing strains and the compounds were assayed according to literature conditions (Journal of Biological Chemistry, 1993;268(32):24481). The k-DNA decatenation assay was used. Briefly, reactions were performed in buffer R (40 mM Tris-HCl (pH 7.5), 6 mM MgCl2, 10 mM DTT, 100 mM potassium glutamate, 40 μM ATP, 50 μg/mL bovine serum albumin, 10 mM NaCl). 0.2 μg of kinetoplast DNA (k-DNA; TopoGen, Columbus, Ohio) was incubated with 5 ng of E. coli topoisomerase IV in the presence or absence of test compounds for 10 minutes at 37° C. Subsequently, one-tenth volume of 10×gel loading buffer (0.3% bromophenol blue, 16% Ficoll, 10 mM Na2HPO4) was added, and samples were loaded onto horizontal 0.8% agarose gels prepared with TBE buffer and containing 0.05 μg/mL of ethidium bromide. Electrophoresis was at 70 V for 2 to 4 hours. Gels were then examined by exposure to UV light. The concentration of drug inhibiting 50% of the decantenating activity of Topoisomerase IV is given as an IC50 and recorded in Table 2.

[1] = Mammalian cell cytotoxicity, colony formation; type: cell-based; conditions: Chinese hamster
Procedure: Mammalian Cell Cytotoxicity
The cells were grown overnight and treated with drug for 3 hours at 37° C., at which time the compound containing media was replaced with fresh media. The cells were then incubated for 5 days and examined for colony formation.

relaxed plasmid pBR322 = assay: DNA intercalation/binding assay; conditions: pBR322 with calf thymus topoisomerase I, 30 minutes at 37° C.; read-out: Drug Concentration causing 50% Intercalation of DNA
Procedure: Compounds of the present invention were evaluated for their ability to intercalate/bind to DNA, using the procedure described in Nucleic Acids Research, 1987;15(15):6713. Specifically, 0.2 μg of relaxed plasmid pBR322 (Lucent, Ltd., Leicester, UK) was treated with 2 U of calf thymus topoisomerase I (Gibco/BRL, Gaithersburg, Md.) in buffer I (10 mM Tris-HCl (Ph 7.5), 50 mM KCl, 5 mM MgCl2, 1 mM Na2EDTA, 15 μg/mL bovine serum albumin) in the presence or absence of test compounds. Reaction were incubated for 30 minutes at 37° C.; volumes were typically 30 μL. Reactions were terminated by the addition of sodium dodecylsulfate (SDS) to 1% and proteinase K to 0.5 mg/mL final concentrations. After an additional 30 minutes at 37° C., one-tenth volume of 10×concentrated loading buffer (0.3% bromophenol blue, 16% Ficoll, 10 mM Na2HPO4) was added, and samples were loaded onto horizontal 0.8% agarose gels prepared in TAE buffer. Electrophoresis was at 22 V for 14 hours. Gels were then stained by soaking for 1.5 hours in deionized water containing 0.2 μg/mL of ethidium bromide, followed by destaining in deionized water for an additional 1.5 hours. Gels were examined and photographed following exposure to UV light. The concentration of the drug which induced a 50% change in the DNA by intercalation is represented by an intercalation IC50 and is recorded in Table 4.

[2] = supercoiling of relaxed pBR322, 30 minutes at 37° C., read-out: DNA Gyrase IC50
[3] = k-DNA decatenation, 10 minutes at 37° C., read-out: Top IV IC50

| Compound | IC50 (E. coli gyrase; [2]) | MIC (B. subtilis RB1) | MIC (E. coli B90) | MIC (E. coli MC4100) | MIC (S. aureus 29213) | MIC (S. pyogenes C203) | IC50 (relaxed plasmid pBR322) | MIC (E. coli To1C) | further results |
| --- | --- | --- | --- | --- | --- | --- | --- | --- | --- |
| 6-Hydroximino-2,5-dihydroxy-methyl-benzo[de]isoquinoline-1,3-dione [Example 120] | 30 µM | – | – | – | – | – | – | – | Minimum Inhibitory Concentrations, B. subtilis RB1 (B. subtilis RB1): >64 µg/mL; Minimum Inhibitory Concentrations, E. coli B90 (E. coli B90): 2.0 µg/mL; Minimum Inhibitory Concentrations, E. coli MC4100 (E. coli MC4100): >64 µg/mL; Minimum Inhibitory Concentrations, E. coli To1C (E. coli To1C): 1.0 µg/mL; Minimum Inhibitory Concentrations, S. aureus 29213 (S. aureus 29213): 16 µg/mL; Minimum Inhibitory Concentrations, S. pyogenes C203 (S. pyogenes C203): 64 µg/mL; IC50 (E. coli topoisomerase IV; [3]): 25 µM |
| O=C1c2cccc3c(Br)ccc(c23)C(=O)N1O [Example 4, 6-Bromo-2-hydroxy-benzo[de]isoquinoline-1,3-dione] | – | 8 µg/mL (≈ 27.4 µM) | 8 µg/mL (≈ 27.4 µM) | > 64 µg/mL | 16 µg/mL (≈ 54.8 µM) | > 64 µg/mL | – | – | IC50 at 3 h ([1]; Chinese hamster cells, drug for 3 hours at 37° C., colony formation after 5 days, read-out: 50% Cytotoxic Conc. in CHO cells): > 250 µM |
| Nc1c(Br)cc2c3c(cccc13)C(=O)N(O)C2=O [Example 26, 6-Amino-5-bromo-2-hydroxy-benzo[de]isoquinoline-1,3-dione] | 7 µM | 0.5 µg/mL (≈ 1.63 µM) | 0.25 µg/mL (≈ 0.814 µM) | 0.5 µg/mL (≈ 1.63 µM) | 2 µg/mL (≈ 6.51 µM) | > 64 µg/mL | > 100 µM | – | IC50 (E. coli topoisomerase IV; [3]): 10 µM |
| O=C1c2ccc(N3CCCC3)c3cc(Br)cc(c23)C(=O)N1O [Example 59, 5-Bromo-2-hydroxy-7-(pyrrolidin-1-yl)-benzo[de]isoquinoline-1,3-dione] | 2.6 µM | 0.5 µg/mL (≈ 1.38 µM) | 0.06 µg/mL (≈ 0.166 µM) | 2 µg/mL (≈ 5.54 µM) | 1 µg/mL (≈ 2.77 µM) | > 64 µg/mL | > 100 µM | 0.06 µg/mL (≈ 0.166 µM) | – |
| O=C1c2cccc3c(N4CCOCC4)c([N+](=O)[O-])cc(c23)C(=O)N1O [Example 81] | – | 8 µg/mL (≈ 23.3 µM) | 8 µg/mL (≈ 23.3 µM) | > 64 µg/mL | 32 µg/mL (≈ 93.2 µM) | > 64 µg/mL | 94 µM | 8 µg/mL (≈ 23.3 µM) | IC50 (E. coli gyrase): 19 µM; melting point: 272 to 274 °C |
| CC1(CN)CCN(c2c(Cl)cc3c4c(cccc24)C(=O)N(O)C3=O)C1 (centres unmarked) [Example 89] | – | 1 µg/mL (≈ 2.78 µM) | 1 µg/mL (≈ 2.78 µM) | 4 µg/mL (≈ 11.1 µM) | 1 µg/mL (≈ 2.78 µM) | 2 µg/mL (≈ 5.56 µM) | – | 0.5 µg/mL (≈ 1.39 µM) | IC50 (E. coli gyrase): 5.5 µM |
| CN1CCN(c2c(Cl)cc3c4c(cccc24)C(=O)N(O)C3=O)CC1 [Example 98] | – | 8 µg/mL (≈ 23.1 µM) | 4 µg/mL (≈ 11.6 µM) | 32 µg/mL (≈ 92.5 µM) | 16 µg/mL (≈ 46.3 µM) | 8 µg/mL (≈ 23.1 µM) | 19 µM | 4 µg/mL (≈ 11.6 µM) | IC50 (E. coli gyrase): 15.8 µM; IC50 (E. coli topoisomerase IV): 3 µM |
| O=C1c2cccc3c(Cl)c(Cl)cc(c23)C(=O)N1O [Example 103, 5,6-Dichloro-2-hydroxy-benzo[de]isoquinoline-1,3-dione] | 4.9 µM | 1 µg/mL (≈ 3.55 µM) | 0.5 µg/mL (≈ 1.77 µM) | 16 µg/mL (≈ 56.7 µM) | 16 µg/mL (≈ 56.7 µM) | > 64 µg/mL | 26 µM | 0.5 µg/mL (≈ 1.77 µM) | IC50 (E. coli topoisomerase IV; [3]): 19 µM |
| NC1CCN(c2c(Cl)cc3c4c(cc([N+](=O)[O-])cc24)C(=O)N(O)C3=O)C1.O=C(O)C(F)(F)F (centres unmarked) [Example 115] | 0.7 µM | – | – | – | – | – | – | – | Minimum Inhibitory Concentrations, B. subtilis RB1 (B. subtilis RB1): 2.0 µg/mL; Minimum Inhibitory Concentrations, E. coli B90 (E. coli B90): 0.5 µg/mL; Minimum Inhibitory Concentrations, E. coli MC4100 (E. coli MC4100): 8.0 µg/mL; Minimum Inhibitory Concentrations, E. coli To1C (E. coli To1C): 0.5 µg/mL; Minimum Inhibitory Concentrations, S. aureus 29213 (S. aureus 29213): >64 µg/mL; Minimum Inhibitory Concentrations, S. pyogenes C203 (S. pyogenes C203): 4.0 µg/mL; IC50 (E. coli topoisomerase IV; read-out: Top IV IC50): 9 µM |
| NC1CCN(c2ccc3c4c(cc(Cl)c(Cl)c24)C(=O)N(O)C3=O)C1.O=C(O)C(F)(F)F (centres unmarked) [Example 117] | 10 µM | – | – | – | – | – | – | – | Minimum Inhibitory Concentrations, B. subtilis RB1 (B. subtilis RB1): 2.0 µg/mL; Minimum Inhibitory Concentrations, E. coli B90 (E. coli B90): 0.5 µg/mL; Minimum Inhibitory Concentrations, E. coli MC4100 (E. coli MC4100): 2.0 µg/mL; Minimum Inhibitory Concentrations, E. coli To1C (E. coli To1C): 0.25 µg/mL; Minimum Inhibitory Concentrations, S. aureus 29213 (S. aureus 29213): 8.0 µg/mL; Minimum Inhibitory Concentrations, S. pyogenes C203 (S. pyogenes C203): 8.0 µg/mL; IC50 (E. coli topoisomerase IV; read-out: Top IV IC50): 4 µM |
| O=C1c2cccc3c4c(cc(c23)C(=O)N1O)OCO4 [Example 122, 2-Hydroxy-5,6-methylenedioxy-benzo[de]isoquinoline-1,3-dione] | 19 µM | 2 µg/mL (≈ 7.78 µM) | 0.5 µg/mL (≈ 1.94 µM) | 2 µg/mL (≈ 7.78 µM) | 8 µg/mL (≈ 31.1 µM) | > 64 µg/mL | > 100 µM | 0.5 µg/mL (≈ 1.94 µM) | – |
| CN(C)CCN1C(=O)c2cc([N+](=O)[O-])cc3cc([N+](=O)[O-])cc(c23)C1=O [Ref #1, 5,8-dinitro-2-(2-dimethylaminoethyl)-benzo[de]isoquinoline-1,3-dione, reference compound] | – | 2 µg/mL (≈ 5.58 µM) | 2 µg/mL (≈ 5.58 µM) | 8 µg/mL (≈ 22.3 µM) | 4 µg/mL (≈ 11.2 µM) | 2 µg/mL (≈ 5.58 µM) | < 10 µM | – | IC50 at 3 h [1]: < 8 µM |
